Source: US10294202B2, “Pyrrolidinones as herbicides” (FMC Corporation, priority 2013, dated 2019)

Legend:
ryegrass, Italian = assay: Test C pre-/postemergence herbicide test; type: in vivo, Lolium multiflorum
How it was run: (§1)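 Pre-emergence: seeds sown in loam/sand blend and treated with compound in surfactant-containing solvent. Post-emergence: plants at 2–18 cm (1- to 4-leaf stage) in peat-based medium sprayed with the same formulation. Visual rating versus controls after 13–15 days in greenhouse, scale 0 (no effect) to 100 (complete control).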

nutsedge, yellow = assay: Test C pre-/postemergence herbicide test; type: in vivo, Cyperus esculentus
How it was run: as §1

soybean = assay: Test C pre-/postemergence herbicide test; type: in vivo, Glycine max
Excerpt: (§2) Seeds of plant species selected from blackgrass (Alopecurus myosuroides), ryegrass, Italian (Italian ryegrass, Lolium multiflorum), wheat (winter wheat, Triticum aestivum), galium (catchweed bedstraw, Galium aparine), corn (Zea mays), crabgrass, large (large crabgrass, Digitaria sanguinalis), foxtail, giant (giant foxtail, Setaria faberii), johnsongrass (Sorghum halepense), lambsquarters (Chenopodium album), morningglory (Ipomoea coccinea), nutsedge, yellow (yellow nutsedge, Cyperus esculentus), pigweed (Amaranthus retroflexus), ragweed (common ragweed, Ambrosia elatior), soybean (Glycine max), barnyardgrass (Echinochloa crus-galli), oilseed rape (Brassica napus), waterhemp (common waterhemp, Amaranthus rudis), kochia (Kochia scoparia), oat, wild (wild oat, Avena fatua), surinam grass (Brachiaria decumbens), foxtail, green (green foxtail, Setaria viridis), goosegrass (Eleusine indica), bromegrass, downy (downy bromegrass, Bromus tectorum), nightshade (eastern black nightshade, Solanum ptycanthum), cocklebur (common cocklebur, Xanthium strumarium), cupgrass, woolly (woolly cupgrass, Eriochloa villosa), bermudagrass (Cynodon dactylon), sunflower, (common oilseed sunflower, Helianthus annuus), Russian thistle (Salsola kali) and velvetleaf (Abutilon theophrasti) were planted into a blend of loam soil and sand and treated preemergence with test chemicals formulated in a non-phytotoxic solvent mixture which included a surfactant. At the same time, plants selected from these crop and weed species and also barley (winter barley, Hordeum vulgare), […]), chickweed (common chickweed, Stellaria media), deadnettle (henbit deadnettle, Lamium amplexicaule), and canarygrass (littleseed canarygrass, Phalaris minor) were planted in pots containing Redi-Earth® planting medium (Scotts Company, 14111 Scottslawn Road, Marysville, Ohio 43041) comprising spaghnum peat moss, vermiculite, wetting agent and starter nutrients and treated with postemergence applications of test chemicals formulated in the same manner. Plants ranged in height from 2 to 18 cm (1- to 4-leaf stage) for postemergence treatments. Treated plants and controls were maintained in a greenhouse for 13 to 15 days, after which time all species were compared to controls and visually evaluated. Plant response ratings, summarized in Table C, are based on a scale of 0 to 100 where 0 is no effect and 100 is complete control. A dash (-) response means no test result.

barnyardgrass [1] = assay: Test A pre-/postemergence herbicide test; type: in vivo, Echinochloa crus-galli; conditions: for Plant response rating, Barnyardgrass: 0 to 100 scale
How it was run: (§3)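 Seeds in loam–sand blend received preemergence directed soil spray; separately, plants 2–10 cm at one- to two-leaf stage received postemergence spray, both with test chemicals in non-phytotoxic solvent with surfactant. After ~10 days in greenhouse, injury rated visually against untreated controls, 0 (no effect) to 100 (complete control).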

corn [2] = assay: Test A pre-/postemergence herbicide test; type: in vivo, Zea mays; conditions: Postemergence
How it was run: as §3

giant foxtail = assay: Test A pre-/postemergence herbicide test; type: in vivo, Setaria faberii; conditions: for Plant response rating, Foxtail, Giant: 0 to 100 scale
How it was run: as §3

waterhemp = assay: Test C pre-/postemergence herbicide test; type: in vivo, Amaranthus rudis
Excerpt: as §2

lambsquarters = assay: Test C pre-/postemergence herbicide test; type: in vivo, Chenopodium album
How it was run: as §1

corn [3] = assay: Test C pre-/postemergence herbicide test; type: in vivo, Zea mays
How it was run: as §1

barnyardgrass [4] = assay: Test C pre-/postemergence herbicide test; type: in vivo, Echinochloa crus-galli
How it was run: as §1

[5] = Postemergence, 31 g ai/ha, scale 0 to 100 (0 no effect, 100 complete control)
[6] = Postemergence, 62 g ai/ha, scale 0 (no effect) to 100 (complete control)
[7] = Postemergence, 125 g ai/ha, scale 0 to 100 (0 no effect, 100 complete control)
[8] = Postemergence, 250 g ai/ha, scale 0 to 100 (0 no effect, 100 complete control)
[9] = Preemergence, 31 g ai/ha, scale 0 to 100, 0 is no effect and 100 is complete control
[10] = Preemergence, 62 g ai/ha, scale 0 to 100 (0 no effect, 100 complete control)
[11] = Preemergence, 125 g ai/ha, scale 0 to 100 (0 no effect, 100 complete control)
[12] = 125 g ai/ha, visual rating, 0 no effect, 100 complete control, approximately 10 days, preemergence
[13] = Postemergence, 125 g ai/ha, 0 is no effect, 100 is complete control
[14] = preemergence, 500 g ai/ha, 0 is no effect and 100 is complete control

SMILES: O=C1NCC(c2cccc(C(F)(F)F)c2)C1C(=O)Nc1ccc(F)cc1F (racemic) [Compound 207]
- Plant response rating, Ryegrass, Italian (ryegrass, Italian; [5]): 0
- Plant response rating, Ryegrass, Italian (ryegrass, Italian; [6]): 0
- Plant response rating, Ryegrass, Italian (ryegrass, Italian; [7]): 0
- Plant response rating, Ryegrass, Italian (ryegrass, Italian; [8]): 0
- Ryegrass, Italian plant response rating (ryegrass, Italian; [9]): 0
- Ryegrass, Italian plant response rating (ryegrass, Italian; [10]): 0
- Plant response rating, Ryegrass, Italian (ryegrass, Italian; [11]): 0
- Plant response rating (scale of 0 to 100), Ryegrass, Italian (ryegrass, Italian; Preemergence, 250 g ai/ha): 0
- Plant response rating, Nutsedge, Yellow (nutsedge, yellow; [5]): 10
- Plant response rating, Nutsedge, Yellow (nutsedge, yellow; [6]): 0
- Plant response rating, Nutsedge, Yellow (nutsedge, yellow; [7]): 0
- Plant response rating, Nutsedge, Yellow (nutsedge, yellow; [8]): 0
- Nutsedge, Yellow plant response rating (nutsedge, yellow; [9]): 0
- Nutsedge, Yellow plant response rating (nutsedge, yellow; [10]): 0
- Plant response rating, Nutsedge, Yellow (nutsedge, yellow; [11]): 0
- Plant response rating (scale of 0 to 100), Nutsedge, Yellow (nutsedge, yellow; Preemergence, 250 g ai/ha): 0
- Plant response rating, Soybean (soybean; [5]): 0
- Plant response rating, Soybean (soybean; [6]): 5
- Plant response rating, Soybean (soybean; [7]): 5
- Plant response rating, Soybean (soybean; [8]): 5
- Soybean plant response rating (soybean; [9]): 0
- Soybean plant response rating (soybean; [10]): 0
- Plant response rating, Soybean (soybean; [11]): 0
- Plant response rating (scale of 0 to 100), Soybean (soybean; Preemergence, 250 g ai/ha): 0
- Plant response rating, Barnyardgrass (barnyardgrass [1]; [12]): 90
- Plant response rating, Barnyardgrass (barnyardgrass [1]; [13]): 80
- Barnyardgrass plant response rating (0 to 100 scale, 0 is no effect, 100 is complete control) (barnyardgrass [1]; Postemergence, 500 g ai/ha): 90
- Plant response rating, Barnyardgrass (barnyardgrass [1]; [14]): 90
- Plant response rating, Corn (corn [2]; 125 g ai/ha, 0 to 100 scale, 0 is no effect, 100 is complete control): 50
- Corn plant response rating (0 to 100 scale, 0 is no effect, 100 is complete control) (corn [2]; 500 g ai/ha): 70
- Plant response rating, Foxtail, Giant (giant foxtail; [12]): 90
- Plant response rating, Foxtail, Giant (giant foxtail; [13]): 90
- Foxtail, Giant plant response rating (0 to 100 scale, 0 is no effect, 100 is complete control) (giant foxtail; Postemergence, 500 g ai/ha): 90
- Plant response rating, Foxtail, Giant (giant foxtail; [14]): 90
- Plant response rating, Waterhemp (waterhemp; [5]): 0
- Plant response rating, Waterhemp (waterhemp; [6]): 0
- Plant response rating, Waterhemp (waterhemp; [7]): 0
- Plant response rating, Waterhemp (waterhemp; [8]): 10
- Waterhemp plant response rating (waterhemp; [9]): 0
- Waterhemp plant response rating (waterhemp; [10]): 0
- Plant response rating, Waterhemp (waterhemp; [11]): 85
- Plant response rating (scale of 0 to 100), Waterhemp (waterhemp; Preemergence, 250 g ai/ha): 75
- Plant response rating, Lambsquarters (lambsquarters; [5]): 0
- Plant response rating, Lambsquarters (lambsquarters; [6]): 10
- Plant response rating, Lambsquarters (lambsquarters; [7]): 35
- Plant response rating, Lambsquarters (lambsquarters; [8]): 15
- Lambsquarters plant response rating (lambsquarters; [9]): 0
- Lambsquarters plant response rating (lambsquarters; [10]): 0
- Plant response rating, Lambsquarters (lambsquarters; [11]): 60
- Plant response rating (scale of 0 to 100), Lambsquarters (lambsquarters; Preemergence, 250 g ai/ha): 70
- Plant response rating, Corn (corn [3]; [5]): 0
- Plant response rating, Corn (corn [3]; [6]): 0
- Plant response rating, Corn (corn [3]; [7]): 0
- Plant response rating, Corn (corn [3]; [8]): 5
- Corn plant response rating (corn [3]; [9]): 0
- Corn plant response rating (corn [3]; [10]): 0
- Plant response rating, Corn (corn [3]; [11]): 55
- Plant response rating (scale of 0 to 100), Corn (corn [3]; Preemergence, 250 g ai/ha): 30
- Plant response rating, Barnyardgrass (barnyardgrass [4]; [5]): 0
- Plant response rating, Barnyardgrass (barnyardgrass [4]; [6]): 10
- Plant response rating, Barnyardgrass (barnyardgrass [4]; [7]): 35
- Plant response rating, Barnyardgrass (barnyardgrass [4]; [8]): 65
- Barnyardgrass plant response rating (barnyardgrass [4]; [9]): 75
- Plant response rating, Barnyardgrass (barnyardgrass [4]; Preemergence, 62 g ai/ha, scale 0 to 100): 85
- Plant response rating, Barnyardgrass (barnyardgrass [4]; [11]): 85
- Plant response rating (scale of 0 to 100; 0 is no effect, 100 is complete control), Barnyardgrass (barnyardgrass [4]; Preemergence, 250 g ai/ha): 95
